# Data published in patent publication US20200353038A1, “PIF-TRANSFECTED CELLS AND METHODS OF USE” (BIOINCEPT, LLC, priority 2013, published 2020).
# Key:
# HEK293 cells = experiment: Transient transfection in HEK293 cells, toxicity; format: cell-based, human; details: intracellular expression, cultured for more than 72 hrs
# [1] = biological target: Tissue-Specific Transplantation Antigen P35 (FX Enzyme) (Homo sapiens, UniProt Q13630); details: ProtoArray
# Procedure: (§1) Unbound probe was washed off, and arrays were assessed by a fluorescence microarray scanner. […] As a negative control, an array was incubated with wash buffer while calmodulin kinase was used as a positive control detected by Alexa Fluor 647-conjugated anti-VS antibody.
# NEK11 = NEK11 (Homo sapiens, UniProt Q8NG66); details: ProtoArray, minor binding target
# Chain of NEK11 (Q8NG66 whole entry): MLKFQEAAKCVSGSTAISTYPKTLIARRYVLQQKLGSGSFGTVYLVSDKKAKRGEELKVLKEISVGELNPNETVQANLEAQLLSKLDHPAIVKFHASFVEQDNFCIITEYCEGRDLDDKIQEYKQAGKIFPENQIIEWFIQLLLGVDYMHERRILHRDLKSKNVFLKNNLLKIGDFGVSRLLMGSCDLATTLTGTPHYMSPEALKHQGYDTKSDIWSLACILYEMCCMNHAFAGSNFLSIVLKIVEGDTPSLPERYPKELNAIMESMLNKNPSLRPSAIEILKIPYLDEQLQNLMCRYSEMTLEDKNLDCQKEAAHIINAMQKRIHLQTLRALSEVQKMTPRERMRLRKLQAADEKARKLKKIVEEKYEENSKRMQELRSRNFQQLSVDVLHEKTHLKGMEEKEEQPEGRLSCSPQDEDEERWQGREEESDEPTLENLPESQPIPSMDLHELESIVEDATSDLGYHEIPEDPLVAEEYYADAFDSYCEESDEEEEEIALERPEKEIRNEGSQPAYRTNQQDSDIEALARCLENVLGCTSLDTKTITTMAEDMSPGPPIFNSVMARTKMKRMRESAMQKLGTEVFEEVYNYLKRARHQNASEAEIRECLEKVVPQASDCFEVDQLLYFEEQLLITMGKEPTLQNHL
# Procedure: as §1
# ITK = ITK (Homo sapiens, UniProt Q08881); details: ProtoArray
# Chain of ITK (Q08881 whole entry): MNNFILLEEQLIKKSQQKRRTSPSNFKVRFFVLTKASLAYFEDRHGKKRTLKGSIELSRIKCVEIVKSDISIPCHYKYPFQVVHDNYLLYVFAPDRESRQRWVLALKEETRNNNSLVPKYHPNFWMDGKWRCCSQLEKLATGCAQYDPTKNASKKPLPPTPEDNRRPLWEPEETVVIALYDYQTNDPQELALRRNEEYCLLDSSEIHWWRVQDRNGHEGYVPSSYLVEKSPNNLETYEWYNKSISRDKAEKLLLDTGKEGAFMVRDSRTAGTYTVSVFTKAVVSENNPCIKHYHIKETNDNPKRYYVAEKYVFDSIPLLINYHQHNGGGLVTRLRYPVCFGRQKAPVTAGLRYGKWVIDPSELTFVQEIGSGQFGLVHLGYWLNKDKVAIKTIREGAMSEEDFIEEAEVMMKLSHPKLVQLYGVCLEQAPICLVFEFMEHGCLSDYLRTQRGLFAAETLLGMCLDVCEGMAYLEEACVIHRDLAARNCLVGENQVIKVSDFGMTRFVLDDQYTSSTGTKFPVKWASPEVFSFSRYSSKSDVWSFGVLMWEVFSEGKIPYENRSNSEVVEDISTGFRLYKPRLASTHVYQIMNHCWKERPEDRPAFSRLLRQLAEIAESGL
# Procedure: as §1
# [2] = biological target: outer dense fiber of the sperm tail-2 (ODF2L) (Homo sapiens, UniProt Q9ULJ1); details: ProtoArray, minor binding target
# Chain of outer dense fiber of the sperm tail-2 (ODF2L) (Q9ULJ1 whole entry): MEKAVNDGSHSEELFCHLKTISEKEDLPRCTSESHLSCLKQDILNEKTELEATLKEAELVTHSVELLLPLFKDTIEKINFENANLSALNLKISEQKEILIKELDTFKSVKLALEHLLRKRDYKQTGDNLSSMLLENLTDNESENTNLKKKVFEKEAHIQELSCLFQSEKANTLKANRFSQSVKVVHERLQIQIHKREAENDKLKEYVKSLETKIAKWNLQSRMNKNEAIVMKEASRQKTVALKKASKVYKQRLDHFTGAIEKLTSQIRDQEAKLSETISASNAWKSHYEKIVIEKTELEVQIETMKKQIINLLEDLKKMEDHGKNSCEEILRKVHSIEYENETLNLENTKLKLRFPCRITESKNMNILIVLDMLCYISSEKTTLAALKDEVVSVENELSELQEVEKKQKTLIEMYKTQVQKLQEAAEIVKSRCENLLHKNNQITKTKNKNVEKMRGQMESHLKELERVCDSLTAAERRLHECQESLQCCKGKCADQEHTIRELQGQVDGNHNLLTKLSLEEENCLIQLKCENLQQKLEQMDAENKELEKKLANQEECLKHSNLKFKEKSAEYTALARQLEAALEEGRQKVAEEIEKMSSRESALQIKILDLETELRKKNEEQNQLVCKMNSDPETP
# Procedure: as §1
# DAPK3, (ZIPK) = DAPK3, (ZIPK) (Homo sapiens, UniProt O43293); details: ProtoArray, minor binding target
# Chain of DAPK3, (ZIPK) (O43293 whole entry): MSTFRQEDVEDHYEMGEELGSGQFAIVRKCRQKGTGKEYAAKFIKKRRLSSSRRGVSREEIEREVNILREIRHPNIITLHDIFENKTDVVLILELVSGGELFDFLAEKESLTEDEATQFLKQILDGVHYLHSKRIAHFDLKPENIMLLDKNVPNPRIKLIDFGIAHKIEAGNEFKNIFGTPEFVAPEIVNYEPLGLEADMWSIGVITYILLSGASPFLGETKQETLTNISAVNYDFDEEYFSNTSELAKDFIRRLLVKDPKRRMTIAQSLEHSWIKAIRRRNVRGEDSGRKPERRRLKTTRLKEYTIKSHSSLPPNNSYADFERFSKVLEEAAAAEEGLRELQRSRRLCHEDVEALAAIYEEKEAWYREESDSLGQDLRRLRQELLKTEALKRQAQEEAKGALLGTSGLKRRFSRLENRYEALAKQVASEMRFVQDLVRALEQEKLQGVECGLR
# Procedure: as §1
# Cass4 = Cass4 (Homo sapiens, UniProt Q9NQ75); details: ProtoArray, minor binding target
# Chain of Cass4 (Q9NQ75 whole entry): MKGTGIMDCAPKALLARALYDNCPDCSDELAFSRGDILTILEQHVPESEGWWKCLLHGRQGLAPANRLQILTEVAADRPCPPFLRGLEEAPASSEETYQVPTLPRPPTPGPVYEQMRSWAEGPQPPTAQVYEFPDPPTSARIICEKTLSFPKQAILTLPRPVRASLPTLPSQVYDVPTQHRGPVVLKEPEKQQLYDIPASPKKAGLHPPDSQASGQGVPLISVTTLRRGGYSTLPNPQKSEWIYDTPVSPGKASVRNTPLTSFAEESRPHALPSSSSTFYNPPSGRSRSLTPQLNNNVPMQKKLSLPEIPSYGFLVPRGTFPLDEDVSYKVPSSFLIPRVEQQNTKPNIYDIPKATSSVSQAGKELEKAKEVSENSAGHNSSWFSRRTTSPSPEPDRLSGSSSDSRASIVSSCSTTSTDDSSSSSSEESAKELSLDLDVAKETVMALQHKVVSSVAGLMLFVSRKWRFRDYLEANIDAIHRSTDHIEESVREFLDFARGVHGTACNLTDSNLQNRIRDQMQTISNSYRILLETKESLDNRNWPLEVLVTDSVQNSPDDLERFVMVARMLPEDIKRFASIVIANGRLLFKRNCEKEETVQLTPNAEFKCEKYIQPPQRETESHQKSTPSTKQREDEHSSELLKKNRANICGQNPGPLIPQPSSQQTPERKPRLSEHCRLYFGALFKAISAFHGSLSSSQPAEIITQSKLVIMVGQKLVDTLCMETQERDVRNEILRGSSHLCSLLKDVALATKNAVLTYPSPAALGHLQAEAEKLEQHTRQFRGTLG
# Procedure: as §1
# Clorf87 = Clorf87 (Homo sapiens, UniProt Q8N0U7); details: ProtoArray, minor binding target
# Chain of Clorf87 (Q8N0U7 whole entry): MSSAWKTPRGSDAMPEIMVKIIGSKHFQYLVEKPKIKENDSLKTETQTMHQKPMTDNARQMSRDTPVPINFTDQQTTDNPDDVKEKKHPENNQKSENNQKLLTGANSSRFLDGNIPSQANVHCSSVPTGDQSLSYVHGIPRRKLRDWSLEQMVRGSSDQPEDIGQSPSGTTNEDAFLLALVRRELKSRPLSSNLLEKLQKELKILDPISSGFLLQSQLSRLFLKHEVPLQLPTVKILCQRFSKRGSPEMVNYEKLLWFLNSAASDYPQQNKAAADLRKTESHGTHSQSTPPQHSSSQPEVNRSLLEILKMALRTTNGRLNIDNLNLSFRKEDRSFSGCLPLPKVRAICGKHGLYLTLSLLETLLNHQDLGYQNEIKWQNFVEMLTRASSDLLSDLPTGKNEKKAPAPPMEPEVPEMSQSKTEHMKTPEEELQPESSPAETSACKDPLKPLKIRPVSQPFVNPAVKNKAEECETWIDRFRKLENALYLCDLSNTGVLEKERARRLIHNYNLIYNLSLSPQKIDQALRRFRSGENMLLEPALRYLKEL
# Procedure: as §1
# [3] = biological target: Platelet-Derived Growth Factor-β(PDGFP) (Homo sapiens, UniProt P01127); details: ProtoArray
# Chain of Platelet-Derived Growth Factor-β(PDGFP) (P01127 82-190): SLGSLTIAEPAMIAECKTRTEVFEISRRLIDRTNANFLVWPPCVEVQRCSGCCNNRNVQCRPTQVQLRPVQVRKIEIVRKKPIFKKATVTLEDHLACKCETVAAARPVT
# Procedure: as §1
# PBMCs = system: PBMCs
# Excerpt: Blood samples without identifiers were obtained from males and nonpregnant females after obtaining consent at MDSPS, WA. The studies were approved by the ethical committee at the institute. From the excess specimen, PBMCs were isolated using standard Ficoll Hypaque, a density gradient method. […] Samples were collected in duplicate at 24 and 48 hrs and used for global mRNA analysis.
# After culture, PBMCs were collected and the chemically fragmented cRNA was then hybridized on Affymetrix HGU133 Plus 2.0 human chips in a GeneChip Hybridization Oven 640 (Affymetrix) and screened for 18,400 human genes and expressed-sequence tags, followed by fluorescence labeling with Fluidics Station 450 (Affymetrix) and optical scanning with an Affymetrix GeneChip Scanner 3000 (Codon Biosciences, LP, Houston, Tex.). P0.05 and >2-fold changes were considered as significant. Data is deposited at NCBI Geo (GSE18291).
# For gene experiments, data was first analyzed using student's t-test, with p<0.05 results, followed by fold-change testing, with a cutoff 2-fold only reported.
# female Swiss mice = details: Alzet pump subcutaneously, PIF 4.2 mg/ml (1 mg/kg/die), read days 14-16 pi
# Procedure: 30 Swiss female mice and 30 Swiss male mice, 8-10 weeks old, were matched overnight for three consecutive days. The next morning, the presence of a vaginal plug was verified. 20 female Swiss mice positive for the vaginal plug were selected for the experiment.
# Mice at days 1-3 post-insemination (pi) were anesthetized with ketamine and domitor 200 μl. […] The mice were located singularly in separated cages. […] At days 6-8 pi, the mice were treated with LPS […] or with PBS. At days 14-16 pi, the mice were euthanized and investigated for vital fetuses and for aborts. Mice with no vital fetuses nor signs of abortion were considered to carry 10 aborts for statistical purposes. The groups were compared with Fisher exact test, p<0.05 was considered significant (FIG. 22).
# IDE = biological target: T1, IDE (Homo sapiens, UniProt P14735); experiment: ProtoArray binding, IDE
# T1 construct: purchased Invitrogen
# Kv1.3b = experiment: ProtoArray binding, Kv1.3b; set-up: species or system human
# Chain of Kv1.3b (Q13303 40-367 limits assumed): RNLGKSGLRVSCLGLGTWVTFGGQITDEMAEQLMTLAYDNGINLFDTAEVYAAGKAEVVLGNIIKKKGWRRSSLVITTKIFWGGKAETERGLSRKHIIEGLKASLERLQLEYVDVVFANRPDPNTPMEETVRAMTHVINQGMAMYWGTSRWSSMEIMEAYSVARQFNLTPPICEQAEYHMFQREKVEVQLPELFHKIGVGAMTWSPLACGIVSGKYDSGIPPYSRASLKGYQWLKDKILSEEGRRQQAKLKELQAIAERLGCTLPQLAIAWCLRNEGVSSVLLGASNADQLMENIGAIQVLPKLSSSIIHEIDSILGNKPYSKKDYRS
# [4] = system: 9000 human protein targets; experiment: Alexa-PIF interaction with ProtoArray Human Protein Microarrays v5.0; format: binding; details: PIF-Alexa 647 250 nM and 2.5 pM; protein not named
# [5] = cell state not given, PIF 50 nM
# [6] = following co-activation (anti-CD3/anti-CD28), PIF 50 nM
# [7] = naive cells (by context), PIF 50 nM
# [8] = naive cells, PIF 50 nM, up to 48 hrs
# Chain of Tissue-Specific Transplantation Antigen P35 (FX Enzyme) (Q13630 whole entry): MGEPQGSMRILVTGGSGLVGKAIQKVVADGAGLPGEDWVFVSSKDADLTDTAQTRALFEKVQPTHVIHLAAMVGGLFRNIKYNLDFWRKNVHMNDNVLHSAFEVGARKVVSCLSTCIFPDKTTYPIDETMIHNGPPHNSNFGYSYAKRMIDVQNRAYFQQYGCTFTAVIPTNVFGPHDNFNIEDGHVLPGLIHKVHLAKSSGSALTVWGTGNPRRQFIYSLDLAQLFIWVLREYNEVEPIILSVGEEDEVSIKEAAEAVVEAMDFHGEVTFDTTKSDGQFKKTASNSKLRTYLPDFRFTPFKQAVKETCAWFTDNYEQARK
substance,measurement,setting,value
DYKDDDDKGGGMVRIKPGSANKPSDDGGYPYDVPDYA (FLAG-(Gly)2-PIF-(Gly)2-HA) [FLAG-HA tagged PIF peptide],toxicity or cell death of transfected cells,HEK293 cells,without signs of toxicity or cell death
MVRIKPGSANKPSDD [PIF],"binding to FX enzyme, in words",[1],Targets
same,"binding to NEK11, in words",NEK11,bind
same,"binding to ITK, in words",ITK,Targets
same,"binding to ODF2L, in words",[2],observed
same,"binding to DAPK3 (ZIPK), in words","DAPK3, (ZIPK)",targets
same,"binding to Cass4, in words",Cass4,target
same,"binding to Clorf87, in words",Clorf87,target
same,"binding to PDGFb, in words",[3],Targets
same,IDE encoding gene expression,PBMCs; PBMCs exposed to PIF,not affected
same,Kv1.3b channel genes expression,PBMCs; PBMCs exposed to PIF,only minimally affected
same,"six additional macropain genes family members, expression (FIG. 21)","PBMCs; PBMCs, PIF 50 nM",upregulated
same,ADAM 17 gene expression,"PBMCs; activated cells (by context), PIF 50 nM",−2.2 fold
same,CDC42 gene expression,"PBMCs; activated cells, PIF 50 nM",−2.2 fold
same,MCM2 gene expression,"PBMCs; activated cells, PIF 50 nM",2.8 fold
same,SPEC 1 gene expression,"PBMCs; activated cells, PIF 50 nM",−2.2 fold
same,TSTA3 (FX) gene expression,"PBMCs; activated cells, PIF 50 nM",3.6 fold
same,cell division cycle 25A (CDC25A) gene expression,"PBMCs; activated cells, PIF 50 nM",6 fold
same,osteonectin gene expression,"PBMCs; activated cells, PIF 50 nM",−2.2 fold
same,H2A O/L gene expression (decrease),PBMCs; [5],2 fold
same,H2A gene expression (decrease),PBMCs; [5],4.2 fold
same,H3F3A gene expression,PBMCs; [5],−3 fold
same,ATP1B1 gene expression,"PBMCs; following activation, PIF 50 nM",−2.4 fold
same,IGFBP6 gene expression,PBMCs; [6],−2.4 fold
same,UDP-glucose dehydrogenase (UGDH) gene expression,PBMCs; [6],−2 fold
same,insulin receptor (INSR) gene expression,PBMCs; [6],−2.8 fold
same,"macropain 26S subunit, non-ATPase, 10 (PSMD10) gene expression",PBMCs; [6],2.4 fold
same,SCN12 gene expression,PBMCs; [7],5.4 fold
same,SCNA1 (Na+ voltage-gated Al) gene expression,PBMCs; [7],7.8 fold
same,"ITK expression, in words",PBMCs; naive cells as printed (last sentence of b342),mildly decreased
same,ITK gene expression,"PBMCs; naive cells, PIF 50 nM",1.6 fold
same,K+ channel (KCNK4) gene expression,"PBMCs; naive cells, PIF 50 nM",2.8 fold
same,IGF-binding protein-3 (IGF219 BP3) gene expression,PBMCs; [8],4.6 fold
same,insulin-like growth factor-1 (IGF1) gene expression,PBMCs; [8],2.8 fold
same,LPS-induced abortion,female Swiss mice; LPS 0.1 pg/gr days 6-8 pi,decreases
same,anesthesia-induced abortion,female Swiss mice; ketamine and domitor,prevents
same,"binding to IDE, in words",IDE; ProtoArray,prime PIF peptide target
same,"binding to Kv1.3b channels, in words",Kv1.3b; ProtoArray,targets
PIF-Alexa 647: Alexafluor647 conjugate of synthetic PIF (MVRIKPGSANKPSDD),Z-Score of one of the 11 interacting proteins,[4],greater than 3
same,Z score,IDE; PIF-Alexa 647 250 nM and 2.5 pM,greater than 2
same,Z score,"Kv1.3b; Kv1.3b two variants, PIF-Alexa 647 250 nM and 2.5 pM",greater than 2
